Literature values, collected in patent US20090010894A1, “METHODS AND SYSTEMS FOR IDENTIFYING COMPOUNDS THAT MODULATE ALPHA-SYNUCLEIN AGGREGATION” (The parkinson's Institute, priority 2005, published 2009).

Legend:
[1] = tested on: transgenic C. elegans expressing A53T, E46K, or A30P human α-synuclein; conditions: exogenous dopamine; transgenic worms expressing mutant human α-synuclein
α-synuclein = α-synuclein (Homo sapiens, UniProt P37840); conditions: aggregated α-synuclein contacted with agent in vitro

| SMILES | reversal of failure in food-sensing behavior [1] | promotes disaggregation of α-synuclein (α-synuclein) |
| --- | --- | --- |
| NCCc1ccc(O)c(O)c1 [dopamine] | reversed these effects |  |
| CO[C@H]1/C=C/O[C@@]2(C)Oc3c(C)c(O)c4c(O)c(c(/C=N/N5CCN(C)CC5)c(O)c4c3C2=O)NC(=O)/C(C)=C\C=C\[C@H](C)[C@H](O)[C@@H](C)[C@@H](O)[C@@H](C)[C@H](OC(C)=O)[C@@H]1C [rifampin] |  | shown to have such an effect |
| CO[C@H]1/C=C/O[C@@]2(C)Oc3c(C)c(O)c4c(O)c(cc(O)c4c3C2=O)NC(=O)/C(C)=C\C=C\[C@H](C)[C@H](O)[C@@H](C)[C@@H](O)[C@@H](C)[C@H](OC(C)=O)[C@@H]1C [rifamycin] |  | shown to have such an effect |
